Experiments:
[1] = oral toxicity in mice; conditions: mouse, in vivo, oral administration, read-out: oral dosage tolerated without exhibiting toxic symptoms
Method: The new cephalosporin derivative of this invention may be administered orally at a unit dose of 100 mg to 250 mg to an adult human patient four times a day, for a guideline. However, precise dosage of the new cephalosporin is determinable through preliminary routine experiments, depending on the body weight, ages, sex and other various parameters of patients as well as the nature of the bacterial infections to be treated, and so on.

[2] = recovery in urine of mice after oral administration (paper-disc assay); type: in vivo, mice of ICR-strain; conditions: ICR mice, male, 0.5 mg per mouse oral; 0-4 h; molar %, as free carboxylic acid; averaged
Excerpt: Thus, some tests were made to evaluate the amount or rate of the cephalosporin compound of this invention which can be recovered as the antibacterially active compound from the urine after it was orally given to mice.
The test compounds estimated in this test for their rate of recovery from urine are Compounds Nos. 2, 4, 6, 8, 10, 12, 14, 16, 18, 20, 22, 24, 26, 28, 30, 32, 34, 36 and 38 identified hereinbefore which are the particular examples of the cephalosporin derivative of general formula (I) of this invention and which are in the form of the pivaloyloxymethyl ester.
To mice of ICR-strain (male, 4-weeks-aged, five mice in each group) was orally administered the test compound identified above at a dosage of 0.5 mg per mouse. By the end of 4 hours after the administration of the test compound, all the amounts of the urine excreted by the treated mice were collected together, and the total quantity of the cephalosporin compound of this invention (as the free carboxylic acid form) in the urine so collected was determined according to a paper-disc assay method using Escherichia coli K-12 8236 strain as the assay strain. […]

Rate of recovery of test compound remaining in urine collected during 0 to 4 hours after oral administration [2]	SMILES	NOAEL [1] [mg/kg]
–	CO/N=C(\C(=O)NC1C(=O)N2C(C(=O)OCOC(=O)C(C)(C)C)=C(SCC3COCO3)CS[C@H]12)c1csc(N)n1 (some centres unmarked) [Compound No. 30, pivaloyloxymethyl 7-[(Z)-2-(2-aminothiazol-4-yl)-2-methoxyiminoacetamido]-3-(1,3-dioxolan-4-yl) methylthio-3-cephem-4-carboxylate]	3000
Less than detectable amount	CC(C)(C)C(=O)OCOC(=O)C1=C(SCC2CCOCC2)CS[C@@H]2C(NC(=O)/C(=N\O)c3csc(N)n3)C(=O)N12 (some centres unmarked) [Compound No. 38, pivaloyloxymethyl 7-[(Z)-2-(2-aminothiazol-4-yl)-2-hydroxyiminoacetamido]-3-(tetrahydropyran-4-yl) methylthio-3-cephem-4-carboxylate]	–

From patent US5332731A, “Cephalosporin derivatives” (Meiji Seika Kaisha, Ltd., priority 1989, dated 1994)
